Reference: paper PMC3942743 (Toxins, 2014)
Counter-ions that a name gives are not always drawn.

Molecular target: uremic plasma (Homo sapiens, UniProt P02768)
Experiment: Binding capacity of uremic plasma for IS at different NaCl concentrations
Format: in vitro ADME
Experimental: After having received approval from the competent institutional review board (ethics committee of the University Hospital Würzburg, code AZ 64/12), written informed consent was obtained from 15 end-stage renal disease patients on maintenance hemodialysis in a single dialysis center (Dialysis center, Elsenfeld, Germany). Blood (7.5 mL) was collected in EDTA-tubes from each patient before dialysis.

uremic plasma, sequence (P02768 25-609): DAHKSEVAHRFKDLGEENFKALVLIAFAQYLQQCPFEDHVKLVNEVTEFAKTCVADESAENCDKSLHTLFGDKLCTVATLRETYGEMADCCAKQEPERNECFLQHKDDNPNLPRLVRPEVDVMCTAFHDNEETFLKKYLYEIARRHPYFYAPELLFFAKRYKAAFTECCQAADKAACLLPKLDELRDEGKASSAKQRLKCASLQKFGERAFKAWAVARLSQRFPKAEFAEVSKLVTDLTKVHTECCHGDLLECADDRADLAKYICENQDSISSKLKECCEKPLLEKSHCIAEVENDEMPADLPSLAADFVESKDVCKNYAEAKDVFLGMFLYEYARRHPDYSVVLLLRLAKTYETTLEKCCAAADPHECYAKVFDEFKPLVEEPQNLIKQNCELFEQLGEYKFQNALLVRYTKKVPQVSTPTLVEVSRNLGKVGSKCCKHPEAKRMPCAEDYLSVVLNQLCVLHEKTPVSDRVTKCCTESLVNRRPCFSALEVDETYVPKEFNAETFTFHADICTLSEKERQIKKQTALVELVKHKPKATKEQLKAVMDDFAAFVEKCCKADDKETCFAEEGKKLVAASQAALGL

**Q.** Which protein bound fraction ([…] NaCl, uremic plasma 1:2 diluted, native toxin) does the source give for `Cc1ccc(OS(=O)(=O)O)cc1` [p-cresyl sulfate] here?
**A.** Its protein bound fraction is 91% ± 2%.

**Q.** What about the “total (native) toxin concentration in uremic plasma” value (plasma of hemodialysis patients before dialysis) of the same molecule?
**A.** Its value is 90 ± 28 µM.
